Each structure is given as a SMILES string. pIC50: −log10 of the molar value. A value given as a limit tells only on which side of the number the result lay.

Common to all, as to format: functional, cell-based
The subject of assay [1] is COLO 205. As to the kind of experiment: Compound was evaluated for cytotoxicity against COLO 205 colon cancer cells ([…] cells). Conditions: Homo sapiens.
In assay [2] the test system is LNCaP. As to the kind of experiment: Compound was evaluated for cytotoxicity against LNCaP prostate cancer cells. The settings on record: Homo sapiens.
In assay [3] the test system is LNCaP. Put plainly: Compound was evaluated for cytotoxicity against LNCaP prostate cancer cells (AR dependent cells). The settings on record: Homo sapiens.
Assay [4] can be described thus: Compound was evaluated for cytotoxicity against LAPC4 prostate cancer cells (AR dependent cells). The settings on record: Homo sapiens.
Assay [5] can be described thus: Compound was evaluated for cytotoxicity against MDA-468 breast cancer cells ([…] cells). The settings on record: Homo sapiens, MDA-MB-468.
The test system of assay [6] is MCF7. As to the kind of experiment: Compound was evaluated for cytotoxicity against MCF-7 breast cancer cells ([…] cells). Conditions: Homo sapiens.
In assay [7] the test system is PC-3. Put plainly: Compound was evaluated for cytotoxicity against PC3 prostate cancer cells ([…] cells). The settings on record: Homo sapiens.

In the case of `COC1=C2C[C@H](C)C[C@H](OC)[C@@H](O)[C@H](C)/C=C(\C)C[C@H](OC(N)=O)[C@@H](OC)/C=C\C=C(/C)C(=O)NC(=CC1=O)C2=O`, the pIC50 in assay [1] was 7.70; in assay [2], 7.40; in assay [3], 7.40; in assay [4], 7.60; in assay [5], 7.70; in assay [6], 7.52. The pIC50 in assay [7] is 7.52.
In the case of `CO[C@H]1/C=C\C=C(/C)C(=O)NC2=CC(=O)C(NCCCC/C=C\[C@]3(O)CC[C@@]4(C)C5CC=C6CC7(CC[C@]6(C)[C@@]5(C)CC[C@@]43C)OCCO7)=C(C[C@H](C)C[C@H](OC)[C@@H](O)[C@H](C)/C=C(\C)C[C@@H]1OC(N)=O)C2=O` (stereo partly specified), in assay [2], the pIC50 is under 6.00.
Consider `CO[C@H]1/C=C\C=C(/C)C(=O)NC2=CC(=O)C(NCCCCC#C[C@]3(O)CC[C@@]4(C)C5CCC6=CC(=O)CC[C@]6(C)[C@@]5(C)CC[C@@]43C)=C(C[C@H](C)C[C@H](OC)[C@@H](O)[C@H](C)/C=C(\C)C[C@@H]1OC(N)=O)C2=O` (stereo partly specified), for which the pIC50 in assay [1] was 6.70; in assay [2], 7.00; in assay [3], 7.00; in assay [4] it was 7.40; in assay [5], 6.62; in assay [6], 6.52. In assay [7], this molecule gave a pIC50 of 6.52.
Molecule `CO[C@H]1/C=C\C=C(/C)C(=O)NC2=CC(=O)C(NCCCCCCC#C[C@]3(O)CC[C@@]4(C)C5CCC6=CC(=O)CC[C@]6(C)[C@@]5(C)CC[C@@]43C)=C(C[C@H](C)C[C@H](OC)[C@@H](O)[C@H](C)/C=C(\C)C[C@@H]1OC(N)=O)C2=O` (stereo partly specified) showed a pIC50 in assay [2] of under 6.00.
As to `CO[C@H]1/C=C\C=C(/C)C(=O)NC2=CC(=O)C(NCCCC#C[C@]3(O)CC[C@@]4(C)C5CCC6=CC(=O)CC[C@]6(C)[C@@]5(C)CC[C@@]43C)=C(C[C@H](C)C[C@H](OC)[C@@H](O)[C@H](C)/C=C(\C)C[C@@H]1OC(N)=O)C2=O` (stereo partly specified), in assay [2], the pIC50 is 6.70.
Same read-out and setting: with `CO[C@H]1/C=C\C=C(/C)C(=O)NC2=CC(=O)C(NCCC#C[C@]3(O)CC[C@@]4(C)C5CCC6=CC(=O)CC[C@]6(C)[C@@]5(C)CC[C@@]43C)=C(C[C@H](C)C[C@H](OC)[C@@H](O)[C@H](C)/C=C(\C)C[C@@H]1OC(N)=O)C2=O` (stereo partly specified) the figure was under 6.00; with `CO[C@H]1/C=C\C=C(/C)C(=O)NC2=CC(=O)C(NCCCC/C=C/[C@]3(O)CC[C@@]4(C)C5CC=C6CC7(CC[C@]6(C)[C@@]5(C)CC[C@@]43C)OCCO7)=C(C[C@H](C)C[C@H](OC)[C@@H](O)[C@H](C)/C=C(\C)C[C@@H]1OC(N)=O)C2=O` (stereo partly specified), under 6.00.
Still for that read-out and setting: with `CO[C@H]1/C=C\C=C(/C)C(=O)NC2=CC(=O)C(NCCCCCC[C@]3(O)CC[C@@]4(C)C5CC=C6CC7(CC[C@]6(C)[C@@]5(C)CC[C@]34C)OCCO7)=C(C[C@H](C)C[C@H](OC)[C@@H](O)[C@H](C)/C=C(\C)C[C@@H]1OC(N)=O)C2=O` (stereo partly specified) the figure was under 6.00.
Same read-out and setting: the same measure for `CO[C@H]1/C=C\C=C(/C)C(=O)NC2=CC(=O)C(NCCCCCC#C[C@]3(O)CC[C@@]4(C)C5CCC6=CC(=O)CC[C@]6(C)[C@@]5(C)CC[C@@]43C)=C(C[C@H](C)C[C@H](OC)[C@@H](O)[C@H](C)/C=C(\C)C[C@@H]1OC(N)=O)C2=O` (stereo partly specified): under 6.00.

In general, pIC50 refers to −log10 of the IC50, conventionally taken in molar units. Low values mean a high IC50, high ones a low IC50.

The values are drawn from ChEMBL document CHEMBL1133130, “Synthesis and evaluation of geldanamycin-testosterone hybrids” (Bioorg Med Chem Lett, 2000).
